pIC50: −log10 of the molar value. Blank lines part the entries; values can stand above or below the molecule they belong to.
Assays:
SMYD3 [1] = target: T1, SMYD3 (Homo sapiens (Human), UniProt Q9H7B4); experiment: SMYD3 cell assay (Trimethyl-MEKK2 In-Cell Western in 293T/17 cells); format: cell-based; conditions: for IC50: 293T/17 cells, read-out: SMYD3 Cell IC50 (μM)*
Method in brief: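 In-Cell Western readout: methanol-fixed cells stained for trimethyl-MEKK2 and flag tag, ratio per well normalized to DMSO and background controls.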

SMYD3 [2] = target: T1, SMYD3; experiment: SMYD3 biochemical assay (SPA, 3H-SAM methylation of MEKK2 protein substrate); conditions: for IC50: read-out: SMYD3 Biochem IC50 (μM)*
Method in brief: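 Enzyme: untagged full-length human SMYD3 from E. coli; substrate GST-tagged MEKK2 from insect cells. Buffer 25 mM Tris-Cl pH 8.0, 1 mM TCEP, 0.005% BSG/Tween 20. 30 min compound–enzyme preincubation at RT; 3H-SAM/MEKK2 start; stop with cold SAM (100 uM final); SPA readout in cpm.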

[3] = Table 2A, read-out: SMYD3 Cell IC50
[4] = Table 2A, read-out: SMYD3 Biochem IC50
[5] = average of n = 1 to n = 50, read-out: SMYD3 Cell IC50
[6] = average of n = 1 to n = 50, read-out: SMYD3 Biochem IC50

T1 sequence (Q9H7B4 whole entry): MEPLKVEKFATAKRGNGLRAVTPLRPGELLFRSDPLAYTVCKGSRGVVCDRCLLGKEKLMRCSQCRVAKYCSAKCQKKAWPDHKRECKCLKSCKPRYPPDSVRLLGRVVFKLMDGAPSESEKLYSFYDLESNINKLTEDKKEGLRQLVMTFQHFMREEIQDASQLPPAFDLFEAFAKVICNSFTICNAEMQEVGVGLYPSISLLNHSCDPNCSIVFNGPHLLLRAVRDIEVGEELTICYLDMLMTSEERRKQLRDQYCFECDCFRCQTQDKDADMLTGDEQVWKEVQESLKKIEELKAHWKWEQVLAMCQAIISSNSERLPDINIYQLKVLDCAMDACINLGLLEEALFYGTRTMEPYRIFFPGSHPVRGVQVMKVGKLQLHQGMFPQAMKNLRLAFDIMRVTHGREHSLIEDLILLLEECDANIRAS

SMILES: C[C@H]1C[C@@H](NC(=O)c2cc(C3CC3)on2)CCN1S(=O)(=O)N1CCC(NCCO)CC1 [compound 808, 5-cyclopropyl-N-((2S,4S)-1-((4-((2-hydroxyethyl)amino)piperidin-1-yl)sulfonyl)-2-methylpiperidin-4-yl)isoxazole-3-carboxamide]
- pIC50 (SMYD3 [1]; read-out: SMYD3 Cell IC50*): 7.43
- pIC50 (SMYD3 [2]; read-out: SMYD3 Biochem IC50*): 8.61

SMILES: CCC[C@H]1C[C@@H](NC(=O)c2cc(C3CC3)on2)CCN1S(=O)(=O)CC1CCN(C)CC1 [compound 991, 5-cyclopropyl-N-((2S,4S)-1-(((1-methylpiperidin-4-yl)methyl)sulfonyl)-2-propylpiperidin-4-yl)isoxazole-3-carboxamide]
- pIC50 (SMYD3 [1]; IC50 values are an average of n = 1 to n = 50, read-out: SMYD3 Cell IC50*): 5.66
- pIC50 (SMYD3 [2]; IC50 values are an average of n = 1 to n = 50, read-out: SMYD3 Biochem IC50*): 6.73

SMILES: O=C(N[C@H]1C[C@H]2CC[C@@H](C1)N2S(=O)(=O)c1ccc2[nH]c(=O)[nH]c2c1)c1cc(C2CC2)on1 [compound 434, 5-cyclopropyl-N-((1R,3r,5S)-8-((2-oxo-2,3-dihydro-1H-benzo[d]imidazol-5-yl)sulfonyl)-8-azabicyclo[3.2.1]octan-3-yl)isoxazole-3-carboxamide]
- IC50 (SMYD3 [1]): > 10 µM
- IC50 (SMYD3 [2]): 2.41 µM

SMILES: NCCCC(=O)N1CC2CCC1CC2NC(=O)c1cc(C2CC2)on1 (centres unmarked) [compound 265, N-(2-(4-aminobutanoyl)-2-azabicyclo[2.2.2]octan-5-yl)-5-cyclopropylisoxazole-3-carboxamide]
- IC50 (SMYD3 [1]): > 40 µM
- IC50 (SMYD3 [2]): 5.45 µM

SMILES: C[C@H]1C[C@@H](NC(=O)c2cc(C3CC3)on2)CCN1S(=O)(=O)c1cccc(C#N)c1 [compound 398, N-((2S,4S)-1-((3-cyanophenyl)sulfonyl)-2-methylpiperidin-4-yl)-5-cyclopropylisoxazole-3-carboxamide]
- IC50 (SMYD3 [1]): 1.21 µM
- IC50 (SMYD3 [2]): 0.212 µM

SMILES: CN(C1CCNCC1)S(=O)(=O)N1CC[C@@H](NC(=O)c2cc(C3CC3)on2)C[C@H]1Cc1ccccc1 [compound 757, N-((2R,4R)-2-benzyl-1-(N-methyl-N-(piperidin-4-yl)sulfamoyl)piperidin-4-yl)-5-cyclopropylisoxazole-3-carboxamide]
- pIC50 (SMYD3 [1]; [5]): 5.12
- pIC50 (SMYD3 [2]; [6]): 6.14

SMILES: CN(C1CCNCC1)S(=O)(=O)N1[C@@H]2CCC[C@H]1C[C@H](NC(=O)c1cc(C3CC3)on1)C2 [compound 687, 5-cyclopropyl-N-((1R,3s,5S)-9-(N-methyl-N-(piperidin-4-yl)sulfamoyl)-9-azabicyclo[3.3.1]nonan-3-yl)isoxazole-3-carboxamide]
- pIC50 (SMYD3 [1]; [5]): 5.77
- pIC50 (SMYD3 [2]; [6]): 6.89

SMILES: C[C@H]1C[C@@H](NC(=O)c2cc(C3CC3)on2)CCN1S(=O)(=O)CC1CCCC(N)C1 (stereo partly drawn) [compound 827, N-((2S,4S)-1-(((3-aminocyclohexyl)methyl)sulfonyl)-2-methylpiperidin-4-yl)-5-cyclopropylisoxazole-3-carboxamide]
- pIC50 (SMYD3 [1]; read-out: SMYD3 Cell IC50*): 7.14
- pIC50 (SMYD3 [2]; read-out: SMYD3 Biochem IC50*): 8.40

SMILES: O=C(N[C@H]1C[C@H]2CC[C@@H](C1)N2S(=O)(=O)N1CCC2(CCN2)CC1)c1cc(C2CC2)on1 [compound 849, N-((1R,3r,5S)-8-((1,7-diazaspiro[3.5]nonan-7-yl)sulfonyl)-8-azabicyclo[3.2.1]octan-3-yl)-5-cyclopropylisoxazole-3-carboxamide]
- pIC50 (SMYD3 [1]; read-out: SMYD3 Cell IC50*): 7.21
- pIC50 (SMYD3 [2]; read-out: SMYD3 Biochem IC50*): 8.23

SMILES: C[C@H]1C[C@@H](NC(=O)c2cc(C3CC3)on2)CCN1S(=O)(=O)CCCNCC1CC1 [compound 630, 5-cyclopropyl-N-((2S,4S)-1-((3-((cyclopropylmethyl)amino)propyl)sulfonyl)-2-methylpiperidin-4-yl)isoxazole-3-carboxamide]
- pIC50 (SMYD3 [1]; [5]): 6.40
- pIC50 (SMYD3 [2]; [6]): 7.53

SMILES: CN1CCC([C@@H](Cc2ccccc2)S(=O)(=O)N2[C@@H]3CC[C@H]2C[C@@H](NC(=O)c2cc(C4CC4)on2)C3)CC1 [compound 894, 5-cyclopropyl-N-((1R,3R,5S)-8-(((R)-1-(1-methylpiperidin-4-yl)-2-phenylethyl)sulfonyl)-8-azabicyclo[3.2.1]octan-3-yl)isoxazole-3-carboxamide]
- pIC50 (SMYD3 [1]; read-out: SMYD3 Cell IC50*): 6.55
- pIC50 (SMYD3 [2]; read-out: SMYD3 Biochem IC50*): 7.86

SMILES: CC(C)CN(C)C1CCN(S(=O)(=O)N2[C@@H]3CC[C@H]2C[C@@H](NC(=O)c2cc(C4CC4)on2)C3)CC1 [compound 860, 5-cyclopropyl-N-((1R,3r,5S)-8-((4-(isobutyl(methyl)amino)piperidin-1-yl)sulfonyl)-8-azabicyclo[3.2.1]octan-3-yl)isoxazole-3-carboxamide]
- pIC50 (SMYD3 [1]; read-out: SMYD3 Cell IC50*): 6.86
- pIC50 (SMYD3 [2]; read-out: SMYD3 Biochem IC50*): 8.12

SMILES: CN(C)CCN(C)CCCS(=O)(=O)N1[C@@H]2CC[C@H]1C[C@@H](NC(=O)c1cc(C3CC3)on1)C2 [compound 610, 5-cyclopropyl-N-((1R,3r,5S)-8-((3-((2-(dimethylamino)ethyl)(methyl)amino)propyl)sulfonyl)-8-azabicyclo[3.2.1]octan-3-yl)isoxazole-3-carboxamide]
- pIC50 (SMYD3 [1]; [3]): 6.48
- pIC50 (SMYD3 [2]; [4]): 7.71

SMILES: C[C@H]1CN(S(=O)(=O)N2CCNCC2)[C@@H](C)C[C@H]1NC(=O)c1cc(C2CC2)on1 [compound 637, 5-cyclopropyl-N-((2S,4R,5S)-2,5-dimethyl-1-(piperazin-1-ylsulfonyl)piperidin-4-yl)isoxazole-3-carboxamide]
- pIC50 (SMYD3 [1]; [5]): 6.69
- pIC50 (SMYD3 [2]; [6]): 7.48

SMILES: CNCCN(C)CCS(=O)(=O)N1[C@@H]2CC[C@H]1C[C@@H](NC(=O)c1cc(C3CC3)on1)C2 [compound 620, 5-cyclopropyl-N-((1R,3r,5S)-8-((2-(methyl(2-(methylamino)ethyl)amino)ethyl)sulfonyl)-8-azabicyclo[3.2.1]octan-3-yl)isoxazole-3-carboxamide]
- pIC50 (SMYD3 [1]; [3]): 6.47
- pIC50 (SMYD3 [2]; [4]): 7.63

SMILES: CC(=O)Nc1ccc(S(=O)(=O)N2CC[C@@H](NC(=O)c3cc(C4CC4)on3)C[C@H]2C)cc1 [compound 330, N-((2R,4R)-1-((4-acetamidophenyl)sulfonyl)-2-methylpiperidin-4-yl)-5-cyclopropylisoxazole-3-carboxamide]
- IC50 (SMYD3 [1]): 29.3 µM
- IC50 (SMYD3 [2]): > 10 µM

SMILES: O=C(N[C@@H]1C[C@H]2CC[C@@H](C1)N2S(=O)(=O)c1ccc2[nH]c(=O)oc2c1)c1cc(C2CC2)on1 [compound 404, 5-cyclopropyl-N-((1R,3s,5S)-8-((2-oxo-2,3-dihydrobenzo[d]oxazol-6-yl)sulfonyl)-8-azabicyclo[3.2.1]octan-3-yl)isoxazole-3-carboxamide]
- IC50 (SMYD3 [1]): 2.92 µM
- IC50 (SMYD3 [2]): 1.4 µM

Second part, the molecule after the results:

- pIC50 (SMYD3 [1]; read-out: SMYD3 Cell IC50*): 6.29
- pIC50 (SMYD3 [2]; read-out: SMYD3 Biochem IC50*): 7.16
SMILES: C[C@H]1CN(S(=O)(=O)[C@H]2CC[C@@H](N(C)C)CC2)CC[C@H]1NC(=O)c1cc(C2CC2)on1 [compound 957, 5-cyclopropyl-N-((3S,4R)-1-(((1s,4R)-4-(dimethylamino)cyclohexyl)sulfonyl)-3-methylpiperidin-4-yl)isoxazole-3-carboxamide]

- pIC50 (SMYD3 [1]; [3]): 6.98
- pIC50 (SMYD3 [2]; [4]): 8.47
SMILES: C[C@H]1C[C@@H](NC(=O)c2cc(C3CC3)on2)CCN1S(=O)(=O)CC1CCN(CCN2CCCCC2)CC1 [compound 553, 5-cyclopropyl-N-((2S,4S)-2-methyl-1-(((1-(2-(piperidin-1-yl)ethyl)piperidin-4-yl)methyl)sulfonyl)piperidin-4-yl)isoxazole-3-carboxamide]

- IC50 (SMYD3 [1]): 4.47 µM
- IC50 (SMYD3 [2]): 0.479 µM
SMILES: NCCCS(=O)(=O)N1CCC(NC(=O)c2cc(C3CC3)on2)C[C@H]1c1ccccc1 (stereo partly drawn) [compound 481, N-((2S)-1-((3-aminopropyl)sulfonyl)-2-phenylpiperidin-4-yl)-5-cyclopropylisoxazole-3-carboxamide]

- IC50 (SMYD3 [1]): 3.3 µM
- IC50 (SMYD3 [2]): 0.0897 µM
SMILES: C[C@@H]1C[C@H](NC(=O)c2cc(C3CC3)on2)CCN1S(=O)(=O)c1ccc(NCCN)nc1 [compound 464, N-((2R,4R)-1-((6-((2-aminoethyl)amino)pyridin-3-yl)sulfonyl)-2-methylpiperidin-4-yl)-5-cyclopropylisoxazole-3-carboxamide]

- pIC50 (SMYD3 [1]; read-out: SMYD3 Cell IC50*): 6.48
- pIC50 (SMYD3 [2]; read-out: SMYD3 Biochem IC50*): 7.77
SMILES: C[C@H](NC1CCN(S(=O)(=O)N2CC[C@H](NC(=O)c3cc(C4CC4)on3)C[C@@H]2C)CC1)c1ccccc1 [compound 905, 5-cyclopropyl-N-((2S,4S)-2-methyl-1-((4-(((S)-1-phenylethyl)amino)piperidin-1-yl)sulfonyl)piperidin-4-yl)isoxazole-3-carboxamide]

- pIC50 (SMYD3 [1]; read-out: SMYD3 Cell IC50*): 6.81
- pIC50 (SMYD3 [2]; read-out: SMYD3 Biochem IC50*): 8.30
SMILES: C[C@H]1C[C@@H](NC(=O)c2cc(C3CC3)on2)CCN1S(=O)(=O)N1CCC(N(C)Cc2ccccc2)CC1 [compound 839, N-((2S,4S)-1-((4-(benzyl(methyl)amino)piperidin-1-yl)sulfonyl)-2-methylpiperidin-4-yl)-5-cyclopropylisoxazole-3-carboxamide]

- pIC50 (SMYD3 [1]; [5]): 5.55
- pIC50 (SMYD3 [2]; [6]): 6.32
SMILES: C[C@H]1CN(S(=O)(=O)CC2CCN(CCN3CCOCC3)CC2)CC[C@H]1NC(=O)c1cc(C2CC2)on1 [compound 738, 5-cyclopropyl-N-((3S,4R)-3-methyl-1-(((1-(2-morpholinoethyl)piperidin-4-yl)methyl)sulfonyl)piperidin-4-yl)isoxazole-3-carboxamide]

- pIC50 (SMYD3 [1]; [3]): 6.67
- pIC50 (SMYD3 [2]; [4]): 7.68
SMILES: C[C@H]1CN(S(=O)(=O)CC2CCN(CCCC(F)(F)F)CC2)CC[C@H]1NC(=O)c1cc(C2CC2)on1 [compound 613, 5-cyclopropyl-N-((3S,4R)-3-methyl-1-(((1-(4,4,4-trifluorobutyl)piperidin-4-yl)methyl)sulfonyl)piperidin-4-yl)isoxazole-3-carboxamide]
